Measured values taken from BigSolDB 2.1.

C1=Cc2cccc3cccc1c23
Conditions	solubility (mole fraction)
in ethanol, 278.1 K	0.00462
in ethanol, 283.53 K	0.00579
in ethanol, 288.25 K	0.00709
in ethanol, 293.25 K	0.00891
in ethanol, 298.2 K	0.0108
in ethanol, 303.2 K	0.0133
in ethanol, 308.2 K	0.0165
in ethanol, 313.05 K	0.0197
in ethanol, 318.25 K	0.0245
in ethanol, 323.15 K	0.0296
in isopropanol, 278.3 K	0.00469
in isopropanol, 283.07 K	0.00592
in isopropanol, 288.33 K	0.0077
in isopropanol, 293.2 K	0.00967
in isopropanol, 298.07 K	0.012
in isopropanol, 303.3 K	0.0152
in isopropanol, 308.05 K	0.0189
in isopropanol, 312.95 K	0.0236
in isopropanol, 318.4 K	0.0302
in isopropanol, 323.25 K	0.0372
in n-butanol, 278.25 K	0.0101
in n-butanol, 283.05 K	0.0122
in n-butanol, 288.05 K	0.0154
in n-butanol, 293.25 K	0.019
in n-butanol, 298.25 K	0.0237
in n-butanol, 303.15 K	0.029
in n-butanol, 308.1 K	0.0349
in n-butanol, 313.2 K	0.0427
in n-butanol, 318.05 K	0.0525
in n-butanol, 323.05 K	0.0639
in toluene, 278.47 K	0.104
in toluene, 283.33 K	0.122
in toluene, 288.1 K	0.142
in toluene, 293.15 K	0.167
in toluene, 298.23 K	0.194
in toluene, 303.15 K	0.224
in toluene, 307.95 K	0.256
in toluene, 312.95 K	0.299
in toluene, 318.3 K	0.346
in toluene, 323.2 K	0.398
